Experiment [1] relates to T1, α-subunit containing GABAA receptor (GABAAR) from human amygdala.
T1 construct: gene GABRA1
The experiment is classed as cell-based. The conditions noted are these: antagonist against 50 μmol/L GABA; pH 7.4, room temperature.

Experiment [2] shares this test system. As to conditions: agonist; -70 mV, pH 7.4, room temperature.

This note sets out measurements from PMC5371550, “GABAB receptor attenuation of GABAA currents in neurons of the mammalian central nervous system” (Physiological Reports, 2017).

The IC50 is the concentration that gives 50% inhibition. As a reminder, the EC50 is the concentration at which the effect is half-maximal. High values mean lower potency in that assay, low ones higher potency in that assay.

Regarding `CN1CCc2cc3c(cc2[C@H]1[C@@H]1OC(=O)c2c1ccc1c2OCO1)OCO3` [bicuculline], the IC50 in experiment [1] was 8 µM. This counts as single-digit micromolar.

The compound `NCc1cc(O)no1` [muscimol] came in with an EC50 in experiment [2] of 45 µM.
